Here are results for 29 compounds from patent US12435060B2, “Acylamino bridged heterocyclic compound, and composition and application thereof” (BEIJING SCITECH-MQ PHARMACEUTICALS LIMITED, priority 2019, dated 2025).

A word on the IC50: it is the concentration that gives 50% inhibition.

Each structure is given as a SMILES string.

For the assay, the system named is HT29 cells. Put plainly: Inhibition of cell necrosis (CCK8 method), induced programmed necrosis of HT29 cells. Format: cell-based. The following applies: Homo sapiens, HT-29; rescue from necrosis induced by TNF-α 20 ng/mL, AT-406 1 μM, Z-VAD-FMK 20 μM; 16-20 hours; CCK-8, OD 450 nm. As for the experimental part: Assay Example 2. Assay Method for Compounds Inhibiting Cell Necrosis (CCK8 Method)
In this assay example 2, under the condition of inducing programmed cell necrosis, different concentrations of the test compounds were added to test the IC50 of the rescue effect of the test compounds on the programmed necrosis.
• Compounds: Dissolved in DMSO to make a 10 mM solution; • TNF-α: The initial concentration was 100 μg/mL; • Z-VAD-FMK: Dissolved in DMSO to make a 10 mM solution; • AT-406: Dissolved in DMSO to make a 10 mM solution. I. Experimental Steps • 1) Compound dilution: All test compounds were dissolved in DMSO to prepare a 10 mM stock solution, and the first concentration gradient dilution of the test compounds was completed in DMSO. The gradient dilution factor was 4 times and 9 concentration gradients were made; A 40-fold overall dilution of all compounds was completed in the cell culture medium, and the resulting compound was 10× compound, which will be added to the wells of the 96-well plate containing cells, so that the final cell culture medium was 1× the designed final concentration. The general drug design is 9 concentration gradients, of which the highest final concentration is 25000 nM, the lowest concentration after 4-fold dilution of 9 concentrations is 0.38 nM, and the final concentration of DMSO in all wells is 0.25%. The compound dilution process is shown in FIG. 3. • 2) HT 29 cells in good growth condition were selected, trypsinized, the cells was collected by centrifugation, resuspended in McCOY's 5A complete medium (containing 10% FBS) and counted, and the number of cells and survival rate were recorded. • 3) Cells were inoculated to the 60 wells in the middle of the 96-well culture plate at a density of 12000 cells/80 μL/well, surrounding wells were filled with sterile water, and incubated overnight. • 4) 10 μL of the 10× compound diluted with the medium was added to the assay wells, 10 μL of McCOY's 5A complete medium containing 2.5% DMSO was added to the inducer-free wells and the control wells, mixed and shaked, and incubated for 30 minutes. • 5) Then 10 μL of inducer mixture (TNF-α, AT-406, Z-VAD-FMK with the final concentration of 20 ng/mL, 1 μM, 20 μM) was added into the assay wells and control wells. 10 μL McCOY's 5A complete medium was added to wells without inducer. Cells were cultured in an incubator with 5% CO2, at 37° C. • 6) After culturing for 16-20 hours, 10 μL of CCK-8 reagent was added to each well, and incubated for about 2 hours; • 7) The OD value was read at 450 nm on the multi-function plate reader. • 8) Data processing: Inhibition rate of necrosis (%)=100*(X−B)/(A−B) • A: The OD values of the wells without inducer (containing cells, CCK-8, without compound and inducer); • […]: OD values of assay wells (containing cells, CCK-8, compound, inducer); • B: OD values of control wells (containing cells, CCK-8, inducer, without compound). Then the value were imported into Graphpad Prism5 software for curve fitting and the IC50 values were calculated.
Background: Tetrazolium dyes change colour on reduction, which living cells bring about.
Consider `Cc1ccc(F)cc1-c1ccnc(NC(=O)c2nnc(Cc3ccccc3)[nH]2)c1` [Example 33, 5-benzyl-N-(4-(5-fluoro-2-methylphenyl)pyridin-2-yl)-4H-1,2,4-triazole-3-carboxamide], for which the IC50 lay in the range of 0.1 to 1 µM. Consider `Cc1ccc(Cl)cc1-c1ccnc(NC(=O)c2nnc(Cc3ccccc3)[nH]2)c1` [Example 34, 5-benzyl-N-(4-(5-chloro-2-methylphenyl)pyridin-2-yl)-4H-1,2,4-triazole-3-carboxamide], for which the IC50 lay in the range of 0.1 to 1 µM. Turning to `Cc1ccc(C#N)cc1-c1ccnc(NC(=O)c2nnc(Cc3ccccc3)[nH]2)c1` [Example 35, 5-benzyl-N-(4-(5-cyano-2-methylphenyl)pyridin-2-yl)-4H-1,2,4-triazole-3-carboxamide], the IC50 was ≤ 0.1 µM. `Cc1ccc(C(F)(F)F)cc1-c1ccnc(NC(=O)c2nnc(Cc3ccccc3)[nH]2)c1` [Example 36, 5-benzyl-N-(4-(2-methyl-5-(trifluoromethyl)phenyl)pyridin-2-yl)-4H-1,2,4-triazole-3-carboxamide] showed a 50% inhibitory concentration (IC50) of 0.1 to 1 µM. `Cc1ccc(S(C)(=O)=O)cc1-c1ccnc(NC(=O)c2nnc(Cc3ccccc3)[nH]2)c1` [Example 37, 5-benzyl-N-(4-(2-methyl-5-(methylsulfonyl)phenyl)pyridin-2-yl)-4H-1,2,4-triazole-3-carboxamide] showed an IC50 of 0.1 to 1 µM.

For the compound `O=C(Nc1cc(-c2cccc3c2OCC3)ccn1)c1nnc(Cc2ccccc2)[nH]1` [Example 38, 5-benzyl-N-(4-(2,3-dihydrobenzofuran-7-yl)pyridin-2-yl)-4H-1,2,4-triazole-3-carboxamide], the IC50 is 1 to 10 µM. Compound `O=C(Nc1cc(-c2cccc3c2CCC3)ccn1)c1nnc(Cc2ccccc2)[nH]1` [Example 39, 5-benzyl-N-(4-(2,3-dihydro-1H-inden-4-yl)pyridin-2-yl)-4H-1,2,4-triazole-3-carboxamide] returned an IC50 of 1 to 10 µM. In the case of `O=C(Nc1cc(-c2cccc3c2CCCO3)ccn1)c1nnc(Cc2ccccc2)[nH]1` [Example 40, 5-benzyl-N-(4-(chroman-5-yl)pyridin-2-yl)-4H-1,2,4-triazole-3-carboxamide], the IC50 lay in the range of 1 to 10 µM. As for `O=C(Nc1cc(-c2cccc3c2OCO3)ccn1)c1nnc(Cc2ccccc2)[nH]1` [Example 41, N-(4-(benzo[d][1,3]dioxol-4-yl)pyridin-2-yl)-5-benzyl-4H-1,2,4-triazole-3-carboxamide], the IC50 was > 10 µM. As for `O=C(Nc1cc(-c2cccc3c2OCCO3)ccn1)c1nnc(Cc2ccccc2)[nH]1` [Example 42, 5-benzyl-N-(4-(2,3-dihydrobenzo[b][1,4]dioxin-5-yl)pyridin-2-yl)-4H-1,2,4-triazole-3-carboxamide], the concentration for half-maximal inhibition (IC50) fell in the range of 1 to 10 µM.

Compound `O=C(Nc1cc(-c2cccc3c2CCCC3)ccn1)c1nnc(Cc2ccccc2)[nH]1` [Example 43, 5-benzyl-N-(4-(5,6,7,8-tetrahydronaphthalen-1-yl)pyridin-2-yl)-4H-1,2,4-triazole-3-carboxamide] had an IC50 of 1 to 10 µM. `Cc1ccc(C2CC2)cc1-c1ccnc(NC(=O)c2nnc(Cc3ccccc3)[nH]2)c1` [Example 45, 5-benzyl-N-(4-(5-cyclopropyl-2-methylphenyl)pyridin-2-yl)-4H-1,2,4-triazole-3-carboxamide]: the half-maximal inhibitory concentration (IC50) was in the range of 0.1 to 1 µM. As to `COc1ccc(C2CC2)cc1-c1ccnc(NC(=O)c2nnc(Cc3ccccc3)[nH]2)c1` [Example 46, 5-benzyl-N-(4-(5-cyclopropyl-2-methoxyphenyl)pyridin-2-yl)-4H-1,2,4-triazole-3-carboxamide], the half-maximal inhibitory concentration (IC50) fell in the range of 1 to 10 µM.

For the compound `O=C(Nc1cc(C2CCCC2)ccn1)c1nnc(Cc2ccccc2)[nH]1` [Example 47, 5-benzyl-N-(4-cyclopentylpyridin-2-yl)-4H-1,2,4-triazole-3-carboxamide], the IC50 is > 10 µM.

For `O=C(Nc1cc(C2CCCCC2)ccn1)c1nnc(Cc2ccccc2)[nH]1` [Example 48, 5-benzyl-N-(4-cyclohexylpyridin-2-yl)-4H-1,2,4-triazole-3-carboxamide], the IC50 was > 10 µM. For `O=C(Nc1cc(C2CCOCC2)ccn1)c1nnc(Cc2ccccc2)[nH]1` [Example 49, 5-benzyl-N-(4-(tetrahydro-2H-pyran-4-yl)pyridin-2-yl)-4H-1,2,4-triazole-3-carboxamide] the value was 1 to 10 µM; for `COc1ncc(C)cc1-c1ccnc(NC(=O)c2nnc(Cc3ccccc3)[nH]2)c1` [Example 50, 5-benzyl-N-(2-methoxy-5-methyl-[3,4′-bipyridin]-2′-yl)-4H-1,2,4-triazole-3-carboxamide], 1 to 10 µM; for `CCOc1ncc(C)cc1-c1ccnc(NC(=O)c2nnc(Cc3ccccc3)[nH]2)c1` [Example 51, 5-benzyl-N-(2-ethoxy-5-methyl-[3,4′-bipyridin]-2′-yl)-4H-1,2,4-triazole-3-carboxamide], 1 to 10 µM. With `Cc1cnc(OC(C)C)c(-c2ccnc(NC(=O)c3nnc(Cc4ccccc4)[nH]3)c2)c1` [Example 52, 5-benzyl-N-(2-isopropoxy-5-methyl-[3,4′-bipyridin]-2′-yl)-4H-1,2,4-triazole-3-carboxamide], the half-inhibitory concentration (IC50) is > 10 µM. For `CCOc1nc(-c2ccnc(NC(=O)c3nnc(Cc4ccccc4)[nH]3)c2)ccc1C` [Example 53, 5-benzyl-N-(6-ethoxy-5-methyl-[2,4′-bipyridin]-2′-yl)-4H-1,2,4-triazole-3-carboxamide] the value was > 10 µM; for `COCCOc1nc(-c2ccnc(NC(=O)c3nnc(Cc4ccccc4)[nH]3)c2)ccc1C` [Example 54, 5-benzyl-N-(6-(2-methoxyethoxy)-5-methyl-[2,4′-bipyridin]-2′-yl)-4H-1,2,4-triazole-3-carboxamide], > 10 µM; for `COCCN(C)c1ccc(C)c(-c2ccnc(NC(=O)c3nnc(Cc4ccccc4)[nH]3)c2)c1` [Example 55, 5-benzyl-N-(4-(5-((2-methoxyethyl)(methyl)amino)-2-methylphenyl)pyridin-2-yl)-4H-1,2,4-triazole-3-carboxamide], 0.1 to 1 µM.

As to `CCOCCN(C)c1ccc(C)c(-c2ccnc(NC(=O)c3nnc(Cc4ccccc4)[nH]3)c2)c1` [Example 56, 5-benzyl-N-(4-(5-((2-ethoxyethyl)(methyl)amino)-2-methylphenyl)pyridin-2-yl)-4H-1,2,4-triazole-3-carboxamide], the 50% inhibitory concentration (IC50) was 0.1 to 1 µM. Turning to `Cc1ccc(N(C)CCCO)cc1-c1ccnc(NC(=O)c2nnc(Cc3ccccc3)[nH]2)c1` [Example 57, 5-benzyl-N-(4-(5-((3-hydroxypropyl)(methyl)amino)-2-methylphenyl)pyridin-2-yl)-4H-1,2,4-triazole-3-carboxamide], the 50% inhibitory concentration (IC50) was 0.1 to 1 µM. For `COCCCN(C)c1ccc(C)c(-c2ccnc(NC(=O)c3nnc(Cc4ccccc4)[nH]3)c2)c1` [Example 58, 5-benzyl-N-(4-(5-((3-methoxypropyl)(methyl)amino)-2-methylphenyl)pyridin-2-yl)-4H-1,2,4-triazole-3-carboxamide] the value was 0.1 to 1 µM. In the case of `COCCCSc1ccc(C)c(-c2ccnc(NC(=O)c3nnc(Cc4ccccc4)[nH]3)c2)c1` [Example 59, 5-benzyl-N-(4-(5-(3-methoxypropylthio)-2-methylphenyl)pyridin-2-yl)-4H-1,2,4-triazole-3-carboxamide], the concentration for half-maximal inhibition (IC50) was ≤ 0.1 µM.

In the case of `COc1ccc(C)nc1-c1ccnc(NC(=O)c2nnc(Cc3ccccc3)[nH]2)c1` [Example 60, 5-benzyl-N-(3-methoxy-6-methyl-[2,4′-bipyridin]-2′-yl)-4H-1,2,4-triazole-3-carboxamide], the half-maximal inhibitory concentration (IC50) is > 10 µM.

The compound `COc1cnc(C)cc1-c1ccnc(NC(=O)c2nnc(Cc3ccccc3)[nH]2)c1` [Example 61, 5-benzyl-N-(5′-methoxy-2′-methyl-[4,4′-bipyridin]-2-yl)-4H-1,2,4-triazole-3-carboxamide] gave a 50% inhibitory concentration (IC50) of 1 to 10 µM. Take `CCOc1ccc(C)nc1-c1ccnc(NC(=O)c2nnc(Cc3ccccc3)[nH]2)c1` [Example 62, 5-benzyl-N-(3-ethoxy-6-methyl-[2,4′-bipyridin]-2′-yl)-4H-1,2,4-triazole-3-carboxamide]: the half-inhibitory concentration (IC50) is > 10 µM.
